Results published in patent US8697692B2, “Pyrrolo [3,2-c] pyridine-4-one 2-indolinone protein kinase inhibitors” (Shanghai Hengrui Pharmaceutical Co., Ltd., priority 2006, dated 2014).

Assays:
A431 cell = assay: Cell Proliferation Inhibition EGFR Assay (SRB method); format: cell-based, homo sapient; conditions: Homo sapiens, A-431; A431 cells, 72 hours exposure, Sulforhodamine B; read-out: IC50 (A431)
Summary of the method: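 A431 cells grown to ~85% confluence, then exposed 72 hours at 37° C to 6 to 7 serial concentrations of compound in DMEM/F12 + 10% FBS, final DMSO ≤0.5%. Growth measured by TCA fixation and sulforhodamine B staining; IC50 calculated from inhibition rates.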

HER-2/ErbB2 kinase = molecular target: T1, HER-2/ErbB2 kinase (Homo sapiens, UniProt P04626); assay: HER-2 Kinase Assay (ELISA); format: biochemical; conditions: 20 μM ATP, 25° C. 60 minutes
T1 construct: purchased Invitrogen corporation #PV3366
T1 sequence (P04626 23-1255): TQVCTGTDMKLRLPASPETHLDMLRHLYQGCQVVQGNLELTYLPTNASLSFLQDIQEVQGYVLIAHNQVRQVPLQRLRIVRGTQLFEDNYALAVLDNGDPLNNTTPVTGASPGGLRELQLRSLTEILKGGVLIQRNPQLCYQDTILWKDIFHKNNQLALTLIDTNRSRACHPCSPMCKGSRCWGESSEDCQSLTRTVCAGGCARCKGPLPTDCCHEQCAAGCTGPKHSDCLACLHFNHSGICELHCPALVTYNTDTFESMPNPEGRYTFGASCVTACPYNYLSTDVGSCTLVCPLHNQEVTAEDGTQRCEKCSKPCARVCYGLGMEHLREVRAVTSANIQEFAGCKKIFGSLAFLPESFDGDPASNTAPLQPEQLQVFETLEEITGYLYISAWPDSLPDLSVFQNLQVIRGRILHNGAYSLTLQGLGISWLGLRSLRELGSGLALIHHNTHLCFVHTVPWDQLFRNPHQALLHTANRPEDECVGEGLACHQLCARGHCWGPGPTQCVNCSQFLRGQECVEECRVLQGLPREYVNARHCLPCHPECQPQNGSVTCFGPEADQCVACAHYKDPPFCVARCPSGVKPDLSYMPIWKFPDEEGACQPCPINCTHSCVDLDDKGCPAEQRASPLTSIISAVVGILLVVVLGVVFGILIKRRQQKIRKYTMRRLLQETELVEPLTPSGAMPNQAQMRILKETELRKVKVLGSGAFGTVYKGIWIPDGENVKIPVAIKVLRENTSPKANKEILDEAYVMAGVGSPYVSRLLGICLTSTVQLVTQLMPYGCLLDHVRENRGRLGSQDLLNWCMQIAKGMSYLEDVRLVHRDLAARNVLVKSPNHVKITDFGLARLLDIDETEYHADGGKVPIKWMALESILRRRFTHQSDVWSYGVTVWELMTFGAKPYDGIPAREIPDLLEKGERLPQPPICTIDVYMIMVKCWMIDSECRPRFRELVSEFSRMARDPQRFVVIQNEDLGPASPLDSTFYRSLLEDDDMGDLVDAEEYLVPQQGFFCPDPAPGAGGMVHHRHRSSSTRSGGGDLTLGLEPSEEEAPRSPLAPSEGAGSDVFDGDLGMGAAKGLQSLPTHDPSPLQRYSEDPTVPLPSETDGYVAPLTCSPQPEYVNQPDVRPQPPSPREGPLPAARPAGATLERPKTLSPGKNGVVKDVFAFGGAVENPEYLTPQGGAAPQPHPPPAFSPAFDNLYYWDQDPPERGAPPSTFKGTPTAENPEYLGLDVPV
Method: An enzyme linked immunosorbent assays (ELISA) was conducted to measure the kinase activity of HER-2 in vitro.
a. Wash Buffer (PBS-T Buffer): 1×PBS (137 mM NaCl; 2.7 mM KCl, 4.3 mM Na2HPO4, 1.4 mM KH2PO4, adjust the pH to 7.2) and 0.05% Tween-20.
b. 1% Bovine Serum Albumin (BSA, Calbiochem #136593) in PBS-T.
c. Stop Buffer: 50 mM EDTA, pH 8.0.
d. DELFIA® Europium-labeled Anti-mouse IgG (PerkinElmer Life Sciences #AD0124).
e. DELFIA® Enhancement Solution (PerkinElmer Life Sciences #1244-105).
f. DELFIA® Streptavidin coated, 96-well, yellow plate (PerkinElmer Life Sciences #AAAND-0005).
g. HER-2/ErbB2 kinase (Invitrogen corporation #PV3366).
h. 10 mM ATP solution (Cell signaling technology #9804).
i. FLT3 (Tyr589) Biotinylated Peptide (Cell signaling technology #1305).
j. Phospho-Tyrosine Mouse mAb (P-Tyr-100) (Cell signaling technology #9411).
k. HTScan™ Tyrosine Kinase Buffer (4×)
(Cell signaling technology #9805).
l. 1.25 M DTT (1000×) (Cell signaling technology).
The following protocol was used:
1. Dilute test compound with DMSO to the desired final assay concentration. Add 1 μl test compound for every assay, to the negative control.
2. Dilute 6 μM substrate peptide (Tyr589) 1:1 with dH2O, add 15 μl to every assay.
3. Immediately transfer HER-2 enzyme from −80° C. to ice. Allow enzyme to thaw on ice.
4. Take 4.5 μg HER-2 enzyme to the enzyme tube.
5. Add 10 μl of DTT (1.25 M) to 2.5 ml of 4×HTScan™ Tyrosine Kinase Buffer (240 mM HEPES pH 7.5, 20 mM MgCl2, 20 mM MnCl2, 12 μM Na3VO4) to make DTT/Kinase buffer.
6. Transfer 0.75 ml of DTT/Kinase buffer to each enzyme tube to make 4× reaction cocktail. Add 7.5 μl 4× reaction cocktail to every assay.
7. Add 4 μl ATP (10 mM) to 496 μl dH2O, take 7.5 μl for every assay. Final Assay Conditions for a 30 μl Reaction
Incubate reaction tube at 25° C. for 60 minutes. 9. Add 30 μl/assay stop buffer (50 mM EDTA, pH 8.0) to stop the reaction. 10. Transfer 25 μl of each reaction and 75 μl dH2O/well to a 96-well streptavidin coated plate and incubate, with shaking at room temperature for 60 minutes. 11. Wash three times with 200 μl/well PBS-T buffer. Pat plate on paper towel to remove excess liquid. 12. Dilute primary antibody, Phospho-Tyrosine mAb (P-Tyr-100), 1:1000 in PBS-T buffer with 1% BSA. Add 100 μl diluted primary antibody to each well. 13. Incubate, with shaking at room temperature for 60 minutes. 14. Wash as described above in step 11. 15. Dilute Europium labeled anti-mouse IgG 1:500 in PBS-T buffer with 1% BSA. Add 100 μl diluted antibody to each well. 16. Incubate, with shaking at room temperature for 30 minutes. 17. Wash five times with 200 μl/well PBS-T buffer. Pat plate on paper towel to remove excess liquid. 18. Add 100 μl/well DELFIA® Enhancement Solution. 19. Incubate, with shaking at room temperature for 5 minutes. 20. Detect 615 nm fluorescence emission with appropriate Time-Resolved Plate Reader.
Calculate the inhibition rate: IR (%)=100−100*(X−B)/(N−B)
X=the fluorescence value of the well contained test compound
The IC50 value can be derived from the IRs of compounds at different concentration gradients.

SMILES	IC50 (A431 cell) [nM]	IC50 (HER-2/ErbB2 kinase) [nM]
Cc1c(/C=C2\C(=O)Nc3cccc(-c4cccc(Cl)c4F)c32)[nH]c2c1C(=O)N(CCN1CCCC1)CC2 [Example 68, 2-[4-(3-Chloro-2-fluoro-phenyl)-2-oxo-1,2-dihydro-indol-3-ylidenemethyl]-3-methyl-5-(2-pyrrolidin-1-yl-ethyl)-1,5,6,7-tetrahydro-pyrrolo[3,2-e]pyridin-4-one]	13800	530
Cc1c(/C=C2\C(=O)Nc3cccc(Br)c32)[nH]c2c1C(=O)N(CCN1CCCC1)CC2 [Example 69, 2-(4-Bromo-2-oxo-1,2-dihydro-indol-3-ylidenemethyl)-3-methyl-5-(2-pyrrolidin-1-yl-ethyl)-1,5,6,7-tetrahydro-pyrrolo[3,2-c]pyridin-4-one]	200	910
Cc1c(/C=C2\C(=O)Nc3cccc(C4CCNCC4)c32)[nH]c2c1C(=O)N(CCN1CCCC1)CC2 [Example 71, 3-Methyl-2-(2-oxo-4-piperidin-4-yl-1,2-dihydro-indol-3-ylidenemethyl)-5-(2-pyrrolidin-1-yl-ethyl)-1,5,6,7-tetrahydro-pyrrolo[3,2-c]pyridin-4-one]	590	1090
